Source: patent publication US6960470B1 (priority 1998, dated 2005)

Test system: hippocampal slices from wt and Δ9 mutant (PS-1) animals
Type: cell-based

Row | Compound | difference in potentiation between wt and Δ9 mutation slices post-tetanus | AP5-sensitive potentials during tetanus, difference between wt and Δ9 mutant slices
1 | CN1C(=O)CN=C(c2ccccc2F)c2cc([N+](=O)[O-])ccc21 [flunitrazepam] | no statistically significant difference between the two groups | 
2 | AP5 |  | no statistically significant difference between the two groups
